In patent publication US8349852B2, “Quinazolinone derivatives useful as vanilloid antagonists” (Novartis AG, priority 2009, dated 2013):

Biological target: human TRPV1 (Homo sapiens, UniProt Q8NER1)
Test: inhibition of low pH-, capsaicin-, anandamide- and NADA-stimulation of human TRPV1
Format: cell-based
Source text: The compounds of formulae (I) and (Ia) and I(B) in crystal form B, and their pharmaceutically acceptable salts and, where possible, pharmaceutically acceptable acid addition salts, have beneficial pharmacological activity and, therefore, are useful as pharmaceuticals.

Sequence of human TRPV1 (Q8NER1 whole entry): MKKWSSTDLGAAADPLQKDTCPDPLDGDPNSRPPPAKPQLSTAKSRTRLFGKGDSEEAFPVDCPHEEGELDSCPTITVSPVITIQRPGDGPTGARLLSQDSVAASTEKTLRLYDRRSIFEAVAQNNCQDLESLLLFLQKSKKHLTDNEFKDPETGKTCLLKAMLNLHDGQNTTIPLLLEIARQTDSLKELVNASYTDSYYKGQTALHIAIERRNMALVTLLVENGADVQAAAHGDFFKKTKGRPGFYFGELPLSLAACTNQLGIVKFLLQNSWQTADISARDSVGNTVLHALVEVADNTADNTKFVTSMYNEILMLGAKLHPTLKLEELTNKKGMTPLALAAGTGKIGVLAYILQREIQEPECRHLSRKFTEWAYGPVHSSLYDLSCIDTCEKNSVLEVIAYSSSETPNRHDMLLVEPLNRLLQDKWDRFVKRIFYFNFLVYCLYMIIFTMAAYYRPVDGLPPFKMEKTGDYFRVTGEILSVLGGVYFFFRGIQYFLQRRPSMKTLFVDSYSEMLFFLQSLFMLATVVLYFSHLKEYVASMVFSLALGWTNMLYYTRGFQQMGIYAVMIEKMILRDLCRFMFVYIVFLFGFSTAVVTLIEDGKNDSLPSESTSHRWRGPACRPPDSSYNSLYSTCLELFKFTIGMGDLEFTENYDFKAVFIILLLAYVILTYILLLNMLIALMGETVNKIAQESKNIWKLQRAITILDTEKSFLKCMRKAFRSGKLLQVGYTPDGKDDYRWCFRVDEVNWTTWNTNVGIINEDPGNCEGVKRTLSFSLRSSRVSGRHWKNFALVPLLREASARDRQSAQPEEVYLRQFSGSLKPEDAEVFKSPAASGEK

With `CC(C)c1nc2cc(O)ccc2c(=O)n1-c1ccc(C#N)cc1` [Example 1, 4-(7-hydroxy-2-isopropyl-4-oxo-4H-quinazolin-3-yl)-benzonitrile crystal form B] the “nature of antagonist activity at human TRPV1” value was “non-competitive and reversible”, the IC50 (IC50, inhibition of NADA-stimulation of human TRPV1, stimulus: NADA) was 27 nM and the IC50 (IC50, inhibition of anandamide-stimulation of human TRPV1, stimulus: anandamide) was 10 nM. The IC50 (IC50, inhibition of capsaicin-stimulation of human TRPV1, stimulus: capsaicin) was 12 nM and the IC50 (IC50, inhibition of low pH-stimulation of human TRPV1, stimulus: low pH) was 5 nM.
